In ChEMBL document CHEMBL1136470, “Rational design, synthesis and structure-activity relationships of a cyclic succinate series of TNF-alpha converting enzyme inhibitors. Part 1: lead identification” (Bioorg Med Chem Lett, 2003) one finds Ki and IC50 data, which are given here for eleven compounds.

For one assay, the target named is T1, Interstitial collagenase (Homo sapiens, UniProt P03956).
T1 sequence (P03956 whole entry): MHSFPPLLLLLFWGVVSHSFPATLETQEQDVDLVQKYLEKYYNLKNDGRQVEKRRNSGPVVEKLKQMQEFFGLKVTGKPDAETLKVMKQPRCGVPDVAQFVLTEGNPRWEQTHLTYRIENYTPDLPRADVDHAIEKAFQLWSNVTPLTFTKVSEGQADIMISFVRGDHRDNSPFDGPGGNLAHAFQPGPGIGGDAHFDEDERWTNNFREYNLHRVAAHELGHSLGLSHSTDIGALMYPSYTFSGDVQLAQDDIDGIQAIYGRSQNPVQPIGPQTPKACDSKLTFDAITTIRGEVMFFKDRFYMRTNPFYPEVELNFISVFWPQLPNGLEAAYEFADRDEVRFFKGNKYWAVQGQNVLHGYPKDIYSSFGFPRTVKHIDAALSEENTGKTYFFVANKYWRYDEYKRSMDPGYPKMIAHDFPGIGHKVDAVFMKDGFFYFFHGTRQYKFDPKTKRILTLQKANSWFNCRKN
As to the kind of experiment: Inhibition of matrix metalloprotease-1 (MMP-1).

The target of assay [1] is Matrix metalloproteinase-9 (Homo sapiens, UniProt P14780). As to the kind of experiment: Inhibition of matrix metalloprotease-9 (MMP-9).
For assay [2], the target named is Disintegrin and metalloproteinase domain-containing protein 17 (Sus scrofa, UniProt O77636). As to the kind of experiment: Inhibition of porcine TACE.
The nature of assay [3]: Inhibition of aggrecanase.
Assay [4] concerns the target 72 kDa type IV collagenase (Homo sapiens, UniProt P08253). The assay can be described thus: Inhibition of matrix metalloprotease-2 (MMP-2).
The species entered for a further assay is Homo sapiens. The assay can be described thus: Compound tested for the in vitro inhibition of TNF-alpha production was determined by using LPS-stimulated human whole blood assay (WBA). The format is functional.

The structures appear in SMILES notation.

Chain of Disintegrin and metalloproteinase domain-containing protein 17 (O77636 whole entry, the tested form may be a part): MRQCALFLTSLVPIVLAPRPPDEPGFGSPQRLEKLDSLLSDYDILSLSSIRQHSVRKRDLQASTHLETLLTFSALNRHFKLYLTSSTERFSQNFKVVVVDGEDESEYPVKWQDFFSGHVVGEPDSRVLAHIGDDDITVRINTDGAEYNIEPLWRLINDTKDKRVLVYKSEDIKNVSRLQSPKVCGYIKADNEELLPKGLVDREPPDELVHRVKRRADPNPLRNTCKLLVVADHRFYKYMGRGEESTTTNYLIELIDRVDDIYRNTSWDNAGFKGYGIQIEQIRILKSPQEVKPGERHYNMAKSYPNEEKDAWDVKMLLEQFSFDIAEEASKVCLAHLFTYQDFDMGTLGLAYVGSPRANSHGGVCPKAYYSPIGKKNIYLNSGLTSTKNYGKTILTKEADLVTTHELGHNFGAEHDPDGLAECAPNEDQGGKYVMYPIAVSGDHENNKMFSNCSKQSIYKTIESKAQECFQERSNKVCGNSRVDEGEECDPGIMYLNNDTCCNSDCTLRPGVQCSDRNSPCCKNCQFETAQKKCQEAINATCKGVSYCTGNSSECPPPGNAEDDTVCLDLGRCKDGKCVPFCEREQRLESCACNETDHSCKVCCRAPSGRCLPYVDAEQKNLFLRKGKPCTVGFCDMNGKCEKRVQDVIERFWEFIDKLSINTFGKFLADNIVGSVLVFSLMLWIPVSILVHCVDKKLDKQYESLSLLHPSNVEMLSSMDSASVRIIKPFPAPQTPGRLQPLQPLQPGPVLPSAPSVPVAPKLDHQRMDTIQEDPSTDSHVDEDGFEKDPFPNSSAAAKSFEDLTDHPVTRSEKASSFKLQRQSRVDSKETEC
Chain of Matrix metalloproteinase-9 (P14780 whole entry, the tested form may be a part): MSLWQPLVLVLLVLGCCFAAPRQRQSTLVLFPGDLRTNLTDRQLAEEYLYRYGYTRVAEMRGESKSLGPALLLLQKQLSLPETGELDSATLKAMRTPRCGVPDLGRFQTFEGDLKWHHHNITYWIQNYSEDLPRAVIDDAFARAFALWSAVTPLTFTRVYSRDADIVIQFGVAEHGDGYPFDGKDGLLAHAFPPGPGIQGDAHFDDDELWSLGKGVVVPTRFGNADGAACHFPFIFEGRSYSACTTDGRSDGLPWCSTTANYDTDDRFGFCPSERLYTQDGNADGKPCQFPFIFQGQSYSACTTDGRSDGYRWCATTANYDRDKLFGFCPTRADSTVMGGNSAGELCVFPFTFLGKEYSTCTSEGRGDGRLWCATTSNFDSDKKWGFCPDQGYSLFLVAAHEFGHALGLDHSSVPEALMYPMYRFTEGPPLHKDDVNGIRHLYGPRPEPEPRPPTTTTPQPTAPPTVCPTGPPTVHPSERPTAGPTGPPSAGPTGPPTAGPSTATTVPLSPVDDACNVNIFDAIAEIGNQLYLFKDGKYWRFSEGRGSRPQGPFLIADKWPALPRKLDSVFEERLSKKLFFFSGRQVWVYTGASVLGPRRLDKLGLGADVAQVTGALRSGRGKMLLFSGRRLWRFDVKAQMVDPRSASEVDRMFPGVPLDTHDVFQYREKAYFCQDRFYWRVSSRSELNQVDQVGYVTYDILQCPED
Chain of 72 kDa type IV collagenase (P08253 whole entry): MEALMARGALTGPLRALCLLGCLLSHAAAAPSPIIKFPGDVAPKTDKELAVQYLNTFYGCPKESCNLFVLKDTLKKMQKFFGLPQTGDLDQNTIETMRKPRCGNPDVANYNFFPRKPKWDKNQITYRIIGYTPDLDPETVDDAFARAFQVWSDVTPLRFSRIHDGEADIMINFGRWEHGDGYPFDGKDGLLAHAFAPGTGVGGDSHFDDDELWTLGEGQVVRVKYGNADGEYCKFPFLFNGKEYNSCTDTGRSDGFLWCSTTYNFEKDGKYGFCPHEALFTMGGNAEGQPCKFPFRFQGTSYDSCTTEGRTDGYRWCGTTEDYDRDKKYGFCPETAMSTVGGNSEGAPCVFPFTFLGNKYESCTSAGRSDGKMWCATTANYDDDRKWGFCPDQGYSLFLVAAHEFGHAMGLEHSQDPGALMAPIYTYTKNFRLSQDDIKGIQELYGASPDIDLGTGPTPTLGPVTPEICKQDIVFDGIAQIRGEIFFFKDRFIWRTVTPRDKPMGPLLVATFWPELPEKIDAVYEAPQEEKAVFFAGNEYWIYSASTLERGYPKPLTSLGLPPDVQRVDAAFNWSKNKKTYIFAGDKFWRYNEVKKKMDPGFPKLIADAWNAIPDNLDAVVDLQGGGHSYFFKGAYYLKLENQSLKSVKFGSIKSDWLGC

The term Ki denotes a measure of affinity in units of concentration, obtained from inhibition or displacement. High values mean lower affinity, low ones higher affinity. One may read the IC50 as the midpoint of a concentration-inhibition curve. On to `O=C(NO)[C@H]1CCCC[C@@H]1C(=O)Nc1ccc(C#Cc2ccc3ncccc3c2)cc1`, for which the Ki at Interstitial collagenase was over 4950 nM; in assay [1], over 2130 nM; in assay [3], over 500 nM; in assay [4] it was over 3330 nM. The half-maximal inhibitory concentration (IC50) in assay [2] is 7240 nM; in the assay filed under Homo sapiens, over 50000 nM.

As to `O=C(NO)[C@H]1CCCC[C@@H]1C(=O)Nc1ccc(COc2ccnc3ccccc23)cc1`, the inhibitory constant (Ki) was over 4950 nM on Interstitial collagenase, over 2130 nM in assay [1], over 500 nM in assay [3] and over 3330 nM in assay [4]. For the same compound, the concentration for half-maximal inhibition (IC50) in assay [2] is 8 nM; in the assay filed under Homo sapiens it was over 50000 nM.

In the case of `O=C(NO)[C@H]1CCCC[C@@H]1C(=O)Nc1ccc(OCc2ccccc2)cc1`, the Ki on Interstitial collagenase is over 4950 nM; in assay [1], over 2130 nM; in assay [3] it was over 500 nM; in assay [4], over 3330 nM. In addition, the half-inhibitory concentration (IC50) is 89 nM in assay [2] and over 50000 nM in the assay listed under Homo sapiens.

For `O=C1NCCCC[C@@H](C(=O)NCC(=O)N2CCOCC2)NC(=O)[C@H](Cc2ccc(-c3ccccc3C(F)(F)F)cc2)[C@@H](C(=O)NO)CCCO1`, the inhibition constant Ki (on Interstitial collagenase; in assay [1]; in assay [4]) was over 2000 nM each time. Besides, the 50% inhibitory concentration (IC50) in the assay filed under Homo sapiens was over 70 nM.

With `O=C(NO)[C@H]1CCCC[C@@H]1C(=O)Nc1ccc(COc2ccc3ncccc3c2)cc1`, the Ki is over 4950 nM at Interstitial collagenase, 876 nM in assay [1], over 500 nM in assay [3] and 1080 nM in assay [4]. Further, the results for the IC50 (in assay [2]; in the assay listed under Homo sapiens) were 56 nM and over 50000 nM, respectively.

Turning to `O=C(NO)[C@H]1CCC[C@@H]1C(=O)Nc1ccc(OCc2cc(Cl)cc(Cl)c2)cc1`, the inhibition constant (Ki) at Interstitial collagenase was over 4950 nM; in assay [1], over 2130 nM; in assay [3], over 500 nM; in assay [4], over 3330 nM. In addition, the IC50 in assay [2] was 53 nM; in the assay filed under Homo sapiens, over 50000 nM.

In the case of `O=C(NO)[C@H]1CCC[C@@H]1C(=O)Nc1ccc(OCc2ccncc2)cc1`, the inhibition constant (Ki) is over 4950 nM at Interstitial collagenase, over 2130 nM in assay [1], over 500 nM in assay [3] and over 3330 nM in assay [4]. Besides, the concentration for half-maximal inhibition (IC50) was 620 nM in assay [2] and over 50000 nM in the assay listed under Homo sapiens.

Take `O=C(NO)[C@H]1CCC[C@@H]1C(=O)Nc1ccc(Cc2ccncc2)cc1`: the inhibitory constant (Ki) on Interstitial collagenase was over 4950 nM; in assay [1] it was over 2130 nM; in assay [3] it was over 500 nM; in assay [4], 675 nM. In addition, the figures for the IC50 (in assay [2]; in the assay listed under Homo sapiens) were 210 nM and over 50000 nM, respectively.

Regarding `O=C(NO)[C@H]1CCCC[C@@H]1C(=O)Nc1ccc(COc2cccc3ncccc23)cc1`, the Ki at Interstitial collagenase is over 4950 nM; in assay [1] it was 1360 nM; in assay [3], over 500 nM; in assay [4] it was 585 nM. The IC50 is 45 nM in assay [2] and over 50000 nM in the assay filed under Homo sapiens.

On to `O=C(NO)[C@H]1CCC[C@@H]1C(=O)Nc1ccc(OCc2ccccc2)cc1`, for which the inhibition constant Ki is over 4950 nM at Interstitial collagenase, over 2130 nM in assay [1], over 500 nM in assay [3] and over 3330 nM in assay [4]. Also, the IC50 in assay [2] was 110 nM; in the assay filed under Homo sapiens it was over 50000 nM.

With `O=C(NO)[C@H]1CCC[C@@H]1C(=O)Nc1ccc(COc2ccnc3ccccc23)cc1`, the Ki at Interstitial collagenase is over 4950 nM; in assay [1], over 2130 nM; in assay [3] it was over 500 nM; in assay [4], over 3330 nM. Further, the IC50 in assay [2] is 39 nM; in the assay listed under Homo sapiens it was over 50000 nM.
